Experimental data as given in US8258160B2, “SCD1 inhibitors triazole and tetrazole compounds” (Novartis AG, priority 2006, dated 2012).

| Compound | melting point |
| --- | --- |
| Cc1nc(-c2cn(Cc3ccc(F)cc3)nn2)sc1C(=O)NCc1ccccc1 [Example 1.2, N-benzyl-2-(1-(4-fluorobenzyl)-1H-1,2,3-triazol-4-yl)-4-methylthiazole-5-carboxamide] | 114 to 115 °C |
| Cc1nc(-c2cn(Cc3ccc(C(F)(F)F)cc3)nn2)sc1C(=O)NCc1ccccc1 [Example 1.3, N-benzyl-4-methyl-2-(1-(4-(trifluoromethyl)benzyl)-1H-1,2,3-triazol-4-yl)thiazole-5-carboxamide] | 131 to 132 °C |
| Cc1nc(-c2cn(Cc3ccccc3)nn2)sc1C(=O)NCc1cccnc1 [Example 4, 2-(1-benzyl-1H-1,2,3-triazol-4-yl)-4-methyl-N-(pyridin-3-ylmethyl)thiazole-5-carboxamide] | 212 to 213 °C |
| Cc1nc(-c2cn(Cc3ccc(F)cc3)nn2)sc1C(=O)NCc1cccnc1 [Example 4.1, 2-(1-(4-fluorobenzyl)-1H-1,2,3-triazol-4-yl)-4-methyl-N-(pyridin-3-ylmethyl)thiazole-5-carboxamide] | 212 to 213 °C |
| Cc1nc(-c2cn(Cc3ccc(C(F)(F)F)cc3)nn2)sc1C(=O)NCc1cccnc1 [Example 4.2, 4-methyl-N-(pyridin-3-ylmethyl)-2-(1-(4-(trifluoromethyl)benzyl)-1H-1,2,3-triazol-4-yl)thiazole-5-carboxamide] | 204 to 205 °C |
| Cc1nc(-c2cn(CCC3CC3)nn2)sc1C(=O)NCc1cccnc1 [Example 4.4, 2-(1-(2-cyclopropylethyl)-1H-1,2,3-triazol-4-yl)-4-methyl-N-(pyridin-3-ylmethyl)thiazole-5-carboxamide] | 124 to 125 °C |
| Cc1nc(-c2cn(CC3CC3)nn2)sc1C(=O)NCc1cccnc1 [Example 4.5, 2-(1-(cyclopropylmethyl)-1H-1,2,3-triazol-4-yl)-4-methyl-N-(pyridin-3-ylmethyl)thiazole-5-carboxamide] | 140 to 141 °C |
| Cc1nc(-c2nn[nH]n2)sc1C(=O)NCc1cccnc1 [Example 6, 4-methyl-N-(pyridin-3-ylmethyl)-2-(2H-tetrazol-5-yl)thiazole-5-carboxamide] | > 200 °C (dec.) |
| Cc1nc(-c2n[nH]c(Cc3ccccc3)n2)sc1C(=O)NCc1ccccc1 [Example 8, N-benzyl-2-(5-benzyl-1H-1,2,4-triazol-3-yl)-4-methylthiazole-5-carboxamide] | 235 to 237 °C |
| Cc1cc(-c2n[nH]c(Cc3ccccc3)n2)sc1C(=O)NCc1ccccc1 [Example 9, N-benzyl-5-(5-benzyl-1H-1,2,4-triazol-3-yl)-3-methylthiophene-2-carboxamide] | 168 to 171 °C |
| Cc1nc(-n2cc(-c3ccccc3)nn2)sc1C(=O)NCc1ccccc1 [Example 10, N-benzyl-4-methyl-2-(4-phenyl-1H-1,2,3-triazol-1-yl)thiazole-5-carboxamide] | 175 to 178 °C |
| Cc1nc(-n2cc(CCc3ccccc3)nn2)sc1C(=O)NCc1ccccc1 [Example 10.2, N-benzyl-4-methyl-2-(4-phenethyl-1H-1,2,3-triazol-1-yl)thiazole-5-carboxamide] | 167 to 170 °C |
| Cc1nc(-n2cc(CCCc3ccccc3)nn2)sc1C(=O)NCc1ccccc1 [Example 10.3, N-benzyl-4-methyl-2-(4-(3-phenylpropyl)-1H-1,2,3-triazol-1-yl)thiazole-5-carboxamide] | 94 to 97 °C |
| Cc1nc(-n2cc(COc3ccccc3)nn2)sc1C(=O)NCc1ccccc1 [Example 10.4, N-benzyl-4-methyl-2-(4-(phenoxymethyl)-1H-1,2,3-triazol-1-yl)thiazole-5-carboxamide] | 140 to 143 °C |
| COc1ccc(-c2cn(-c3nc(C)c(C(=O)NCc4ccccc4)s3)nn2)cc1 [Example 10.5, N-benzyl-2-(4-(4-methoxyphenyl)-1H-1,2,3-triazol-1-yl)-4-methylthiazole-5-carboxamide] | 168 to 171 °C |
